# Laboratory results: patent US12662464B2, “Degraders of cyclin-dependent kinase 12 (CDK12) and uses thereof” (DANA-FARBER CANCER INSTITUTE, INC., priority 2019, dated 2026)
# Columns and labels:
# [1] = target: T1, CDK12 (Homo sapiens, UniProt Q9NYV4); experiment: CDK12 degradation by Western blotting; assay type: cell-based; details: degradation of CDK12 at 100 nM
# T1 construct: endogenous in cells; host or cells: Jurkat (human T-ALL)
# Method: Cells treated with DMSO or with the CDK12 degraders BSJ-04-023, BSJ-04-071, BSJ-04-076, BSJ-04-077, BSJ-04-078, BSJ-04-079, and BSJ-04-100 at the indicated concentrations were collected and examined with Western blots at 6 hours.
# Cells treated with DMSO or with the CDK12 degraders BSJ-04-023, BSJ-04-086, BSJ-04-089, BSJ-04-098, BSJ-04-099, and BSJ-04-100 at the indicated concentrations were collected and examined with Western blots at 6 hours.
# Assays for the degradation of CDK12 by exemplary compounds of Formula (I) were conducted. The results for the assays for the degradation of CDK12 by exemplary CDK12 degrader compounds depicted in Table 1 are shown in FIGS. 1-3.
# [2] = Pharmacokinetic study, single IV injection in mice; assay type: in vivo; details: 2 mg/kg IV, male C57BI/6 mice, plasma
# Method: Standard pharmacokinetic parameters were determined by administration of exemplary compound BSJ-05-063 to male C57BI/6 mice, and conducting standard pharmacokinetic studies. A single 2 mg/kg intravenous (IV) injection of compound BSJ-05-063 solution in […] DMSO/Cremophor EL® (oxirane, propane-1,2,3-triol)/water was delivered, and the pharmacokinetic parameters were evaluated. The plasma concentrations of BSJ-05-063 were reported at each of the 8 time points (5 minutes, 15 minutes, 30 minutes, 1 hours, 2 hours, 4 hours, 6 hours, and 8 hours post-dosing) are the average values from 3 test animals (male C57BI/6 mice).
# [3] = tested on: CDK12, CDK13, CDK9; experiment: Rescue of degradation by pre-treatment, Western blot in Jurkat and Molt 4 cells; assay type: cell-based, human; details: 2 hour pre-treatment with THZ-5-31, Carfilzomib, thalidomide or MLN4924, then 250 nM for 6 hours
# Method: FIGS. 1-3 show the degradation rescued by pre-treatment with Carlfilzomib and exemplary CDK12 irreversible inhibitor, THZ-5-31
# The degradation of CDK12, CDK13, CDK9 was rescued by 2 hour pre-treatment with exemplary CDK12 inhibitor THZ-5-31, exemplary […] Carfilzomib (CFZ), thalidomide (Thal.) and MLN4924 (inhibitor of NEDD8-Activating Enzyme (NAE)) at the indicated concentrations before treatment with exemplary CDK12 inhibitor BSJ-0423 (BSJ-04-023) at 250 nM for 6 hours. BSJ-04-023 is of formula: […]
# T1 sequence (Q9NYV4 whole entry): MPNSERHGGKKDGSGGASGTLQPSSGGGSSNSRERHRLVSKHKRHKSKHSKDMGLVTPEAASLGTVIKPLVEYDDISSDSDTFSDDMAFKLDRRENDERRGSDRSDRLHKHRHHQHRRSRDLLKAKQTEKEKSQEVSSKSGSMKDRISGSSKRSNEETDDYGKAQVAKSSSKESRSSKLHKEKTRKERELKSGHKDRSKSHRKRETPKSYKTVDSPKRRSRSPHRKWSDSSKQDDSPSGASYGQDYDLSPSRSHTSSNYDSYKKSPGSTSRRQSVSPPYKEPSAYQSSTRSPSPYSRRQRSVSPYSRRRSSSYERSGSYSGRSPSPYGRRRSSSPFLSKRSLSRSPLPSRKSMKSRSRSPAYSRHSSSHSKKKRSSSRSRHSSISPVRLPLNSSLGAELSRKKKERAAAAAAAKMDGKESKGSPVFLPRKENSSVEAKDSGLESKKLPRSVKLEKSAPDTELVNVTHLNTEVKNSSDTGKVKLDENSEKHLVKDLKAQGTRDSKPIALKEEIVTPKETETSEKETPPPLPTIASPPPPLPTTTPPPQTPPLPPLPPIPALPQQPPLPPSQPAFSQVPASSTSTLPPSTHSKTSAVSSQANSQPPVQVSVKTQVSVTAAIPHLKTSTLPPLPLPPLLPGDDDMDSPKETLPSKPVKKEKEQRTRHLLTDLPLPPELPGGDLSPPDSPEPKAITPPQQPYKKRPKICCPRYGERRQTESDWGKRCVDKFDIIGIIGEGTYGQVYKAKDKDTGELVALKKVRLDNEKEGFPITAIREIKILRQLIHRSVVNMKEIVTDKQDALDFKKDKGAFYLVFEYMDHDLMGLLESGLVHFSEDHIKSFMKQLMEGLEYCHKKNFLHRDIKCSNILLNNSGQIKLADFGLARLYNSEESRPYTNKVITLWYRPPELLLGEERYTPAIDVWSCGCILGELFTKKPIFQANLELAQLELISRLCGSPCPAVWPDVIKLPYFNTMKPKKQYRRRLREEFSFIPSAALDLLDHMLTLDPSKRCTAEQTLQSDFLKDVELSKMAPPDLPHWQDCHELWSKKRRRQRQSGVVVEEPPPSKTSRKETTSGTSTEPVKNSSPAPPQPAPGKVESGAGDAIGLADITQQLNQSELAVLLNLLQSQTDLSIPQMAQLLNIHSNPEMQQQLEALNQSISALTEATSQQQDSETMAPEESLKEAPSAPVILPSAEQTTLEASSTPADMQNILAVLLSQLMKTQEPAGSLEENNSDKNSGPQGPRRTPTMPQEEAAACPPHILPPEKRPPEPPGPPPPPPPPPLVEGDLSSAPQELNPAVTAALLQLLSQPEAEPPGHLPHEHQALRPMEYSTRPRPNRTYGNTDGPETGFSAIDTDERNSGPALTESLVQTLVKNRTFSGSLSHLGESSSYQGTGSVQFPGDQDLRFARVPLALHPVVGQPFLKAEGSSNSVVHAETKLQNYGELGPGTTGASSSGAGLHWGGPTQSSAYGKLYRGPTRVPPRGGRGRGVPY
# T1 sequence (O75909 whole entry partner): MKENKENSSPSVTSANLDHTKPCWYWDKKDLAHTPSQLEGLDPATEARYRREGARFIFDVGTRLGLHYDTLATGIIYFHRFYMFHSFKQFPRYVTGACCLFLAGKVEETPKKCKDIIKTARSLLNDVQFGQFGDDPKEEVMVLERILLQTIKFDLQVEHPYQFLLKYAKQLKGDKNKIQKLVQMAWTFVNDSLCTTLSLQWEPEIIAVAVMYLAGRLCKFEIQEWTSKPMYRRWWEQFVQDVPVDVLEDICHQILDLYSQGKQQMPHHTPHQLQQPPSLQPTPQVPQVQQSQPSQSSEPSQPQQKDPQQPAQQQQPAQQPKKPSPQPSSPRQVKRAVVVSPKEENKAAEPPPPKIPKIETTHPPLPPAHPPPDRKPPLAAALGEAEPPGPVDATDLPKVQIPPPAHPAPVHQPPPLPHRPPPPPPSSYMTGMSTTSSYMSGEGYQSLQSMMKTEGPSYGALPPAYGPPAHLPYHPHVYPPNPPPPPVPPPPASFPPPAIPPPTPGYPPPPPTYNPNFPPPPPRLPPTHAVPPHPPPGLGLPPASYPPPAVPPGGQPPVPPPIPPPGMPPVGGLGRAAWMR
Structure (SMILES),CDK12 degradation activity [1],also measured
"O=C(COc1cccc2c1C(=O)N(C1CCC(=O)NC1=O)C2=O)NCCCN1CCN(c2ccc(C(=O)N3CCC[C@@H](Nc4ncc(Cl)c(-c5c[nH]c6ccccc56)n4)C3)cc2)CC1 (stereo partly drawn) [Compound 1-10, N-(3-(4-(4-((R)-3-((5-chloro-4-(1H-indol-3-yl)pyrimidin-2-yl)amino)piperidine-1-carbonyl)phenyl)piperazin-1-yl)propyl)-2-((2-(2,6-dioxopiperidin-3-yl)-1,3-dioxoisoindolin-4-yl)oxy)acetamide]",+ (“+” indicates 60% degradation of CDK12 at 100 nM),–
"Cc1ncsc1-c1ccc([C@H](C)NC(=O)[C@@H]2C[C@@H](O)CN2C(=O)[C@@H](NC(=O)CCCCCCCCCCN2CCC[C@@H](Nc3ncc(Cl)c(Nc4ccccc4S(=O)(=O)C(C)C)n3)C2)C(C)(C)C)cc1 [Compound 1-15, (2S,4R)-1-((S)-2-(11-((R)-3-((5-chloro-4-((2-(isopropylsulfonyl)phenyl)amino)pyrimidin-2-yl)amino)piperidin-1-yl)undecanamido)-3,3-dimethylbutanoyl)-4-hydroxy-N—((S)-1-(4-(4-methylthiazol-5-yl)phenyl)ethyl)pyrrolidine-2-carboxamide]",+++ (“+++” indicates a greater than 90% degradation),AUC % Extrap [2]: 6.27 % Extrap; AUCINF_obs [2]: 368545 ng·min/mL; Cl_obs [2]: 6.04 mL/min/kg; MRTINF_obs [2]: 2.41 h; T1/2 [2]: 2.21 h; Tmax [2]: 4.8 min; Vss_obs [2]: 0.84 L/kg
"O=C(COc1cccc2c1C(=O)N(C1CCC(=O)NC1=O)C2=O)NCCCCCN1CCN(c2ccc(C(=O)N3CCC[C@@H](Nc4ncc(Cl)c(-c5c[nH]c6ccccc56)n4)C3)cc2)CC1 (stereo partly drawn) [Compound 1-9, N-(5-(4-(4-((R)-3-((5-chloro-4-(1H-indol-3-yl)pyrimidin-2-yl)amino)piperidine-1-carbonyl)phenyl)piperazin-1-yl)pentyl)-2-((2-(2,6-dioxopiperidin-3-yl)-1,3-dioxoisoindolin-4-yl)oxy)acetamide]",++ (“++” indicates 80% degradation),–
"Cc1ncsc1-c1ccc([C@H](C)NC(=O)[C@@H]2C[C@@H](O)CN2C(=O)[C@@H](NC(=O)CCOCCOCCOCCN2CCC[C@@H](Nc3ncc(Cl)c(Nc4ccccc4S(=O)(=O)C(C)C)n3)C2)C(C)(C)C)cc1 [Compound 1-16, (2S,4R)-1-((S)-14-(tert-butyl)-1-((R)-3-((5-chloro-4-((2-(isopropylsulfonyl)phenyl)amino)pyrimidin-2-yl)amino)piperidin-1-yl)-12-oxo-3,6,9-trioxa-13-azapentadecan-15-oyl)-4-hydroxy-N—((S)-1-(4-(4-methylthiazol-5-yl)phenyl)ethyl)pyrrolidine-2-carboxamide]",+++ (“+++” indicates a greater than 90% degradation),–
"O=C(COc1cccc2c1C(=O)N(C1CCC(=O)NC1=O)C2=O)NCCCCCCN1CCC[C@@H](Nc2ncc(Cl)c(-c3c[nH]c4ccccc34)n2)C1 (stereo partly drawn) [Compound I-2, N-(6-((R)-3-((5-chloro-4-(1H-indol-3-yl)pyrimidin-2-yl)amino)piperidin-1-yl)hexyl)-2-((2-(2,6-dioxopiperidin-3-yl)-1,3-dioxoisoindolin-4-yl)oxy)acetamide]",++ (“++” indicates 80% degradation),–
"O=C(COc1cccc2c1C(=O)N(C1CCC(=O)NC1=O)C2=O)NCCOCCOCCOCCN1CCC[C@@H](Nc2ncc(Cl)c(-c3c[nH]c4ccccc34)n2)C1 (stereo partly drawn) [Compound 1-5, N-(2-(2-(2-(2-((R)-3-((5-chloro-4-(1H-indol-3-yl)pyrimidin-2-yl)amino)piperidin-1-yl)ethoxy)ethoxy)ethoxy)ethyl)-2-((2-(2,6-dioxopiperidin-3-yl)-1,3-dioxoisoindolin-4-yl)oxy)acetamide]",++ (“++” indicates 80% degradation),–
"O=C(COc1cccc2c1C(=O)N(C1CCC(=O)NC1=O)C2=O)NCCCCCCCN1CCC[C@@H](Nc2ncc(Cl)c(-c3c[nH]c4ccccc34)n2)C1 (stereo partly drawn) [Compound I-1, N-(7-((R)-3-((5-chloro-4-(1H-indol-3-yl)pyrimidin-2-yl)amino)piperidin-1-yl)heptyl)-2-((2-(2,6-dioxopiperidin-3-yl)-1,3-dioxoisoindolin-4-yl)oxy)acetamide]",+++ (“+++” indicates a greater than 90% degradation),"degradation of CDK12, CDK13, CDK9 after pre-treatment [3]: rescued"
"CC(C)S(=O)(=O)c1ccccc1Nc1nc(N[C@@H]2CCCN(CCCCCCCNC(=O)COc3cccc4c3C(=O)N(C3CCC(=O)NC3=O)C4=O)C2)ncc1Cl (stereo partly drawn) [Compound 1-14, N-(7-((R)-3-((5-chloro-4-((2-(isopropylsulfonyl)phenyl)amino)pyrimidin-2-yl)amino)piperidin-1-yl)heptyl)-2-((2-(2,6-dioxopiperidin-3-yl)-1,3-dioxoisoindolin-4-yl)oxy)acetamide]",+++ (“+++” indicates a greater than 90% degradation),–
"O=C(COc1cccc2c1C(=O)N(C1CCC(=O)NC1=O)C2=O)NCCCCCCCN1CCC(C(=O)N2CCC[C@@H](Nc3ncc(Cl)c(-c4c[nH]c5ccccc45)n3)C2)CC1 (stereo partly drawn) [Compound 1-12, N-(7-(4-((R)-3-((5-chloro-4-(1H-indol-3-yl)pyrimidin-2-yl)amino)piperidine-1-carbonyl)piperidin-1-yl)heptyl)-2-((2-(2,6-dioxopiperidin-3-yl)-1,3-dioxoisoindolin-4-yl)oxy)acetamide]",++ (“++” indicates 80% degradation),–
